Data on one compound can be found in patent US20040002117A1 (priority 1998, published 2004).

Experiment [1] concerns nuclear import of NFAT in C1.7W2 T cells. Put plainly: NFAT1 immune staining assay, nuclear import in C1.7W2 T cells. In kind it is cell-based, murine. The following applies: INCA6 20 μM or 40 μM; CsA/FK506 1 μM/100 nM; 1 μM ionomycin 15 min. The procedure: For an immune staining assay, C1.7W2 T cells growing on coverslips in Dulbecco's modified Eagle medium, supplemented with 10% fetal calf serum, 10 mM HEPES, and 2 mM glutamine, at 37 C. were pretreated with medium alone, with INCA6 (20 μM or 40 μM), or with CsA/FK506 (1 μM/100 nM) for 10 min, then stimulated for an additional 15 min with 1 μM ionomycin, in medium alone or in the continued presence of inhibitor as appropriate. Medium was removed, and the cells were fixed, permeabilized, and stained using the anti-67.1 antiserum against NFAT1 (A Ho et al (1994) J Biol Chem 269, 28181-28186) and a fluorescent second antibody.

Experiment [2] concerns PMA-MAP kinase signalling pathway in C1.7W2 T cells. The experiment in a line: phosphorylation of p44/p42 MAP kinase in PMA-stimulated C1.7W2 T cells. It counts as cell-based, murine. As to conditions: INCA6 pretreatment; 20 nM PMA 15 min. The procedure:
Dephosphorylation of NFAT is evident in the shift of the stained NFAT band the sample from cells that were stimulated with ionomycin in the absence of inhibitor (FIG. 12A, lane 2). […] Activation of the latter pathway was monitored by examining phosphorylation of p44/p42 MAP kinase. For this assay the cells were pretreated and incubated as for the NFAT dephosphorylation assay, except that stimulation was for 15 min with 20 nM PMA. Cells were collected by centrifugation, lysed in Laemmli sample buffer, and analyzed by Western blotting with an anti-phospho-p44/p42 MAP kinase antibody (Cell Signaling Technology).

The next experiment deals with calcineurin (Homo sapiens, UniProt Q08209, L343A/M347D/Y341S). The experiment in a line: 1H NMR titration spectroscopy binding experiments. As to conditions: 10 μM compound, 20 μM calcineurin, 25° C., buffered D2O. The procedure:
T2-filtered ^1H NMR spectra were obtained on a Bruker Avance 600 instrument with CryoPhobe using low-power presaturation of residual water. Preacquisition delays included up to five spin echos to suppress fast-relaxing broad protein resonances and were times to yield in-phase signals for J-coupled spins. Chemical shifts were referenced to internal standard 5 μM 2,2-dimethylsilapentane-5-sulfonic acid (DSS).

Experiment [3] concerns NFAT dephosphorylation by calcineurin in C1.7W2 T cells. The experiment in a line: ionomycin-induced NFAT dephosphorylation in C1.7W2 T cells, Western blot. In kind it is cell-based, murine. As to conditions: 1 μM ionomycin 15 min. The procedure: For the dephosphorylation assay, C1.7W2 T cells were pretreated in Dulbecco's modified Eagle medium, supplemented with 10% fetal calf serum, 10 mM HEPES, and 2 mM glutamine, at 37 C. with INCA6 (5-40 μM) for 10 min, then stimulated for an additional 15 min with 1 μM ionomycin in the continued presence of inhibitor. Control incubations omitted INCA6, ionomycin, or both. DMSO was present at equal concentrations in all incubations. Cells were collected by centrifugation and lysed in Laemmli sample buffer. Samples were analyzed by SDS-polyacrylamide gel electrophoresis according to Laemmli (U K Laemmli (1970) Nature 227, 680-685) using a 6% separating gel, transferred to nitrocellulose membrane, and probed with an antiserum to NFAT1.
(In western blotting, separated proteins are transferred to a membrane and probed.)

In experiment [4] the test system is cytokine mRNAs in C1.7W2 T cells. The experiment in a line: RNase protection assay of cytokine mRNAs in C1.7W2 T cells stimulated with PMA and ionomycin. In kind it is cell-based, murine. The procedure:
The effects of INCA6 on transcription were examined in the case of several cytokine mRNAs that are known targets of calcineurin-NFAT signalling. C1.7W2 T cells were preincubated for 10 min. in medium alone, in medium containing INCA6, or in medium containing CsA and FK506, then stimulated under conditions that normally initiate signalling through the calcium-calmodulin-calcineurin-NFAT pathway. Cells in control samples that had not been pretreated with inhibitor were left unstimulated, or were stimulated for 45 min with 20 nM PMA alone, or with 20 nM PMA and 1 μM ionomycin. Cells in parallel samples that had been pretreated for 10 min with inhibitor were then further incubated for 45 min without stimulation or with PMA and ionomycin, in the continued presence of inhibitor. At the end of the incubation, cells were harvested and total cellular RNA was extracted using Ultraspec RNA-binding resin (Biotecx Laboratories). Levels of cytokine mRNAs were analyzed by RNase protection assays performed with RiboQuant multiprobe kits (Pharmingen) following the instructions of the manufacturer. Briefly, for each sample 10 μg of target RNA was hybridized overnight to a ^32P-labelled RNA probe that had been synthesized in vitro from a template set representing multiple murine cytokine mRNAs, and then the unhybridized probe and other single-stranded RNAs were digested with RNases. The protected RNAs were purified, and probes for the individual cytokine mRNAs were resolved on a denaturing 6% polyacrylamide gel. Transcript levels were quantified by autoradiography and by use of a phosphorimager (Molecular Dynamics). Probes for the individual cytokine transcripts were identified by the length of the respective protected fragments. The results are presented in FIGS. 14A to 14C, which are pictures of RNA gel autoradiograms. Data were corrected for minor variations in RNA loading by normalizing the data for each sample to the intensity of the signal for the housekeeping transcripts L32 and GAPDH (see lower panels of FIGS. 14A, 14B, and 14C).

Experiment [5] deals with T1, recombinant human calcineurin catalytic domain, calcineurin(2-347) (Homo sapiens, UniProt Q08209, L343A/M347D/Y341S).
T1 construct: GST (N, cleaved yes); made in house; host or cells: E. coli strain DH5α
The experiment in a line: fluorescence polarization competition assay, displacement of OG-VIVIT from calcineurin. In kind it is binding. The procedure:
Samples were analyzed as described in the preceding paragraph, and the resulting polarization data were plotted against the concentration of unlabelled VIVIT peptide, as shown in FIG. 8B.
The library stocks were dissolved at a nominal concentration of 10 mM in DMSO, and formatted for convenient robotic transfer on 384-well plates at the Institute of Chemistry and Cell Biology, Harvard Medical School. To initiate the competition assay, 40 nl volumes were pin-transferred from each well of a library stock plate to the corresponding wells of an assay plate, utilizing a robotic device. After a minimum 10 min incubation at room temperature to allow the binding to reach equilibrium, fluorescence polarization data were collected employing an Analyst plate reader (Molecular Devices).
Stocks of candidate inhibitor compounds and their structural analogues were purchased from ChemBridge or Asinex. The structure and purity of individual compounds were verified by ^1H NMR, mass spectrometry, or thin-layer chromatography. […] INCA1, INCA2, and INCA6 can be represented generally as follows: […]
A general note: Fluorescence polarisation rises when a labelled molecule tumbles more slowly, as on binding a larger partner.

T1 sequence (Q08209 2-347 Y341S/L343A/M347D): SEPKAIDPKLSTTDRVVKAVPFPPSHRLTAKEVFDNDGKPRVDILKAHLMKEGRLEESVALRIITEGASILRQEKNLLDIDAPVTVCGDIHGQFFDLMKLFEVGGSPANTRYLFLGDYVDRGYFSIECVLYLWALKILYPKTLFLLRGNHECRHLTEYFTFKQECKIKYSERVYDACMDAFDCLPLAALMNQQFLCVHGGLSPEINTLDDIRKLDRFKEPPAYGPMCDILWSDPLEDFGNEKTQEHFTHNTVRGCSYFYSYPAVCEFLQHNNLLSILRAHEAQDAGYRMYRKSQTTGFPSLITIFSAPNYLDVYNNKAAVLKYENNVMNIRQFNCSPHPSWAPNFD
Sequence of calcineurin (Q08209 2-347 Y341S/L343A/M347D limits assumed): as the sequence (Q08209 2-347 Y341S/L343A/M347D) above

For orientation: Ki means a measure of affinity in units of concentration, obtained from inhibition or displacement. For orientation: IC50 means the concentration that gives 50% inhibition. Regarding `O=C1C=CC(=O)C2=C1C1c3ccccc3C2c2ccccc21` [INCA6], in experiment [1], the “localization of NFAT immune staining in ionomycin-stimulated cells” value is listed as “localized to the cytoplasm”. In experiment [2], the “activation of the PMA-MAP kinase signalling pathway (phosphorylation of p44/p42 MAP kinase)” value was “not blocked”. Moreover, on calcineurin, the “binding to calcineurin in the absence of VIVIT peptide” value is given as “direct molecular interaction”. Moreover, the figures for the “blockade of NFAT dephosphorylation in cells” value in experiment [3] (10 μM INCA6), in experiment [3] (20 μM INCA6) and in experiment [3] (40 μM INCA6) were “partial”, “nearly complete” and “total”, respectively. Besides, the “induction of GM-CSF mRNA” value is reported as “partially prevented” in experiment [4] (20 μM INCA6, 20 nM PMA and 1 μM ionomycin 45 min); “fully blocked” in experiment [4] (40 μM INCA6, CsA/FK506 1 μM/100 nM, PMA and ionomycin 45 min). Moreover, the “induction of lymphotactin (Ltn), MIP1β, and MIP-1α mRNAs” value in experiment [4] (20 μM INCA6, PMA and ionomycin) is on record as “partially blocked”; in experiment [4] (40 μM INCA6, CsA/FK506, PMA and ionomycin), “fully blocked”. Further, the “induction of TNFα mRNA” value in experiment [4] (20 μM or 40 μM INCA6, CsA/FK506, PMA and ionomycin) is reported as “inhibited”. The “induction of IFNγ mRNA” value in experiment [4] (INCA6, CsA/FK506, PMA and ionomycin) was “inhibited”. In addition, the “levels of TNFβ, RANTES, and IP-10 mRNAs” value in experiment [4] (not downstream targets of NFAT) was “unaffected”. Moreover, in experiment [4] (unstimulated cells), the “basal level of GM-CSF mRNA” value is “not affected”. In addition, in experiment [5], the Ki was in the range of 0.8 to 5 µM. Besides, the “displacement of OG-VIVIT from calcineurin” value in experiment [5] (at high concentrations, 1 μM calcineurin, 60 nM OG-VIVIT) is “complete”. Moreover, in experiment [5] (calcineurin-VIVIT peptide interaction, read-out: Estimated IC50), the IC50 is 17 µM.
